Paper PMC7762174 (Viruses, 2020)
Structures can show the parent of a compound that is named as a salt. Where two headings read alike, the source gives them in different places.

Legend:
HIV-1_91US005 [1] = conditions: HIV-1, human PBMC, RT assay, 7 days; 95% CI in brackets
HIV-1_91US005 [2] = conditions: HIV-1, human PBMC, p24 ELISA; 95% CI in brackets
human PBMCs [3] = experiment: Cytotoxicity in PBMC (MTS)
SARS-CoV-2 [4] = experiment: microbe, parasite or virus in culture; assay type: cell-based
in vitro [5] = conditions: African green monkey
HCMV AD169-GFP = experiment: microbe, parasite or virus in culture; assay type: cell-based, human cytomegalovirus; conditions: Human betaherpesvirus 5, AD169, 168 h
[6] = test system: primary human foreskin fibroblasts (HFFs); parameters: method as in ref 28 = [28]; conditions: HFF; reported previously; cited from earlier work
SARS-CoV-2 [7] = experiment: microbe, parasite or virus in culture; assay type: cell-based; conditions: for reduction in viral yield: Vero 76, 3 days
SARS-CoV-2 [8] = experiment: microbe, parasite or virus in culture; assay type: cell-based; remark: listed apart in the source
in vitro [9] = assay type: cell-based; conditions: African green monkey
in vitro [10] = assay type: cell-based; conditions: human
SARS-CoV-2 [11] = assay type: cell-based
Vero cells = conditions: African green monkey
in vitro [12] = conditions: African green monkey; remark: listed apart in the source
[13] = biological target: T1, N-terminally truncated recombinant hDHODH enzyme (Homo sapiens, UniProt Q02127); experiment: In vitro inhibition of human DHODH; assay type: biochemical
T1 construct: using an N-terminally truncated recombinant hDHODH enzyme as described
T1 sequence (Q02127 29-395 limits assumed): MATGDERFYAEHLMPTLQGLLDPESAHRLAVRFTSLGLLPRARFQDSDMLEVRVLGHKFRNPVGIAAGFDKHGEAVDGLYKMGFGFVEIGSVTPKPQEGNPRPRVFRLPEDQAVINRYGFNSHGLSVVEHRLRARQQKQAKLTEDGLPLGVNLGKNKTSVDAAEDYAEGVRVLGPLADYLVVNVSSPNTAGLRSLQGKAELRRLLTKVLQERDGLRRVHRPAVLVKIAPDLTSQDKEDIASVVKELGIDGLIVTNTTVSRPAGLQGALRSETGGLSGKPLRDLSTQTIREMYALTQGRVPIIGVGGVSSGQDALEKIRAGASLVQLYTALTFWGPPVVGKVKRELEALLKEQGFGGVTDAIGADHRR

[14] = Neutral Red assay (NRA) cytotoxicity; conditions: African green monkey
[15] = test system: HCV subgenomic replicon of genotype 1b; experiment: HCV subgenomic replicon Luc reporter assay in Huh7; assay type: cell-based; conditions: Hepatitis C virus, Huh-7, 24 h
[16] = test system: primary human foreskin fibroblasts (HFFs)
human PBMCs [17] = conditions: 7 days, 100 µM
MPO in colonic tissue = test system: MPO in colonic tissue; parameters: method as in ref 57 = [57]; conditions: murine TNBS-induced colitis model; cited from earlier work
inflammation in the lung = test system: inflammation in the lung; parameters: method as in ref 57 = [57]; conditions: mouse model of systemic lupus erythematosus; cited from earlier work
in vitro [18] = conditions: human
in vitro [19] = conditions: human; remark: listed apart in the source
HIV-1_91US005 [20] = experiment: microbe, parasite or virus in culture; conditions: Human immunodeficiency virus 1, PBMC, 168 h
HIV-1_91US005 [21] = experiment: microbe, parasite or virus in culture; conditions: Human immunodeficiency virus 1, PBMC
[22] = Cytotoxicity in Huh7 replicon cells (CytoTox-1 cell proliferation assay); conditions: human
[23] = test system: Huh7 human hepatoma cell line; experiment: as above; conditions: highest concentration (30 µM), Huh7
[24] = Severe acute respiratory syndrome coronavirus 2, RT-qPCR, Vero cells, read-out: Anti-SARS-CoV-2 drug efficacy on Vero cells: EC50
[25] = Severe acute respiratory syndrome coronavirus 2, Caco-2

Question: What does the source list for Cc1cn([C@H]2C[C@H](N=[N+]=[N-])[C@@H](CO)O2)c(=O)[nH]c1=O [AZT, azidothymidine/zidovudine]?
Answer: EC50 (HIV-1_91US005 [1]): 0.00038 µM; EC50 (HIV-1_91US005 [2]): 0.00027 µM; CC50 (human PBMCs [3]): > 1 µM

Question: For CCN(CC)CCCC(C)Nc1ccnc2cc(Cl)ccc12 (stereo not drawn) [CQ, chloroquine, reference compound], which EC50 (SARS-CoV-2 [4]; [24]) is on record?
Answer: Its EC50 is 2.7 ± 0.9 µM.

Question: What about the CC50 (in vitro [5]) of the same compound?
Answer: The CC50 was greater than 20 µM.

Question: For Nc1nc(O)c2ncn(COC(CO)CO)c2n1 [GCV, ganciclovir, reference compound], which EC50 (HCMV AD169-GFP) is on record?
Answer: Its EC50 is 1.69 ± 0.8 µM.

Question: What about the CC50 [6] of the same compound?
Answer: Its CC50 is greater than 15 µM.

Question: Which EC50 (SARS-CoV-2 [4]; Severe acute respiratory syndrome coronavirus 2, Vero 76, 72 h, read-out: EC50, replicate 3 RT-qPCR) does the source give for COc1cccc(-c2ccc(NC(=O)C3=C(C(=O)O)CCC3)c(F)c2)c1 [IMU-838, calcium salt of vidofludimus] here?
Answer: Its EC50 is 10 ± 9 µM.

Question: What about the EC50 (SARS-CoV-2 [4]; Severe acute respiratory syndrome coronavirus 2, Vero, 48 h, read-out: EC50, replicate 1 RT-qPCR) of the same compound?
Answer: The EC50 was 6.8 µM.

Question: And the EC50 (SARS-CoV-2 [4]; Severe acute respiratory syndrome coronavirus 2, Vero, 72 h, read-out: EC50, replicate 2 RT-qPCR)?
Answer: Its EC50 is 6 µM.

Question: And the EC50 (SARS-CoV-2 [4]; Severe acute respiratory syndrome coronavirus 2, Vero, read-out: Mean EC50 of replicates 1-3)?
Answer: Its EC50 is 7.6 ± 5.8 µM.

Question: What about the EC90 (SARS-CoV-2 [7]; Severe acute respiratory syndrome coronavirus 2, Vero 76, 72 h) of the same compound?
Answer: Its EC90 is 6.2 ± 1.9 µM.

Question: What about the “reduction in viral yield” value (SARS-CoV-2 [7]; drug alone at 10 µM) of the same compound?
Answer: Its value is ~ 1.7 fold log unit.

Question: And the “reduction of viral plaques” value (SARS-CoV-2 [8]; 30 µM, CaCo-2, 72 h p.i.)?
Answer: The value was ~ 1.8 log unit.

Question: And the EC50 (SARS-CoV-2 [8]; [25])?
Answer: The EC50 was 7.5 to 15 µM.

Question: And the EC90 (SARS-CoV-2 [8]; [25])?
Answer: The EC90 was 15 to 30 µM.

Question: And the CC90 (in vitro [9])?
Answer: The CC90 was greater than 100 µM.

Question: And the CC50 (in vitro [10])?
Answer: The CC50 was greater than 60 µM.

Question: What about the CC90 (in vitro [10]) of the same compound?
Answer: Its CC90 is greater than 60 µM.

Question: What about the “inhibition of viral RNA production (mAb-dsRNA)” value (SARS-CoV-2 [11]) of the same compound?
Answer: The value was “concentration-dependent IMU-838-mediated inhibition”.

Question: What about the “inhibition of viral spike protein production (mAb-S)” value (SARS-CoV-2 [11]) of the same compound?
Answer: Its value is “concentration-dependent IMU-838-mediated inhibition”.

Question: And the CC50 (Vero cells)?
Answer: The CC50 was greater than 100 µM.

Question: What about the viability at 3 days, 100 µM (in vitro [12]) of the same compound?
Answer: The viability at 3 days, 100 µM was 95%.

Question: And the CC50 (in vitro [12]; CC50)?
Answer: Its CC50 is 88.1 ± 3.7 µM.

Question: Which IC50 [13] does the source give for COC(=O)c1c(-c2c(F)cccc2Cl)noc1-c1cnn(-c2cccc(Cl)c2)c1C(F)(F)F [IMU-CO3] here?
Answer: The IC50 was 0.041 µM.

Question: What about the EC50 (SARS-CoV-2 [4]; [24]) of the same compound?
Answer: The EC50 was 15.5 ± 4.6 µM.

Question: And the CC50 at 3 days (in vitro [12]; CC50 values on Vero cells)?
Answer: Its CC50 at 3 days is greater than 100 µM.

Question: Which results are given for CCC(CC)COC(=O)[C@H](C)N[P@](=O)(OC[C@H]1O[C@@](C#N)(c2ccc3c(N)ncnn23)[C@H](O)[C@@H]1O)Oc1ccccc1 [RDV, remdesivir]?
Answer: EC50 (SARS-CoV-2 [4]; [24]): 1.7 ± 1 µM; reduction in viral yield (SARS-CoV-2 [7]; drug alone at 5 µM): ~ 3.8 fold log unit; reduction in viral yield (SARS-CoV-2 [7]; drug alone at 10 µM): > 4.0 fold log unit; CC50 (in vitro [5]): > 20 µM; CC50 [14]: > 100 µM

Question: Which EC90 (SARS-CoV-2 [7]; Severe acute respiratory syndrome coronavirus 2, 72 h, Vero 76, USA_WA1/2020, MOI 0.002, VYR, 3 days p.i., read-out: EC90) does the source give for C/C(O)=C(\C#N)C(=O)Nc1ccc(C(F)(F)F)cc1 [TFNM, teriflunomide] here?
Answer: The EC90 was 14 µM.

Question: For COc1cccc(-c2ccc(NC(=O)C3=C(C(=O)O)CCC3)c(F)c2)c1 [Vido, vidofludimus], which EC50 (HCMV AD169-GFP) is on record?
Answer: Its EC50 is 7.4 ± 0.1 µM.

Question: And the EC50 [15]?
Answer: Its EC50 is 5.9 µM.

Question: What about the cytotoxicity [16] of the same compound?
Answer: Its cytotoxicity is “absence of detectable cytotoxicity”.

Question: And the “reduction in cell viability” value (human PBMCs [17])?
Answer: Its value is 46.8%.

Question: And the “levels of MPO in colonic tissue” value (MPO in colonic tissue)?
Answer: The value was “reduced the levels of MPO in colonic tissue”.

Question: And the “inflammation in the lung” value (inflammation in the lung)?
Answer: The value was “decreased inflammation in the lung”.

Question: What about the CC50 (in vitro [18]) of the same compound?
Answer: The CC50 was greater than 100 µM.

Question: And the CC50 at 7 days (in vitro [19])?
Answer: The CC50 at 7 days was greater than 100 µM.

Question: And the EC50 (HIV-1_91US005 [20])?
Answer: The EC50 was 2.1 µM.

Question: And the EC50 (HIV-1_91US005 [21])?
Answer: Its EC50 is 1.3 µM.

Question: What about the CC50 at 24 h [22] of the same compound?
Answer: The CC50 at 24 h was greater than 30 µM.

Question: What about the “reduction in cell viability” value [23] of the same compound?
Answer: Its value is 34%.
